Results published in patent US10722478B2, “Methods and compositions for treating fatigue associated with disordered sleep using very low dose cyclobenzaprine” (Tonix Pharma Holdings Limited, priority 2010, dated 2020).

How the values were obtained:
[1] = system: person diagnosed with multiple sclerosis; settings: 2 mg then 4 mg at bedtime
Procedure: A person was diagnosed with multiple sclerosis three years ago. […] However, they have noted that throughout the day they have very low energy levels. Their capacity for physical and mental work has declined to the point where they are unable to function at work. They report getting 6 to 8 hours of sleep each night but feels unrefreshed in the morning. […] They began taking cyclobenzaprine initially at a dose of 2 mg at bedtime. Their doctor increased the dose to 4 mg at bedtime. […] Their doctor asks them to assess their level of fatigue on a scale of 1 to 10 before and after cyclobenzaprine treatment.

[2] = system: person with traumatic brain injury; settings: 5 mg at bedtime; within three weeks
Procedure: A person survived a serious motor vehicle accident with closed head trauma. They underwent six months of physical rehabilitation. […] Because of the spasticity, the neurologist recommended six months of additional physical rehabilitation. […], characterized by both difficulty falling asleep and early-morning awakening. Their neurologist prescribed cyclobenzaprine at a dose of 5 mg at bedtime.

[3] = system: FM patients; settings: response threshold CAPA2+A3(Norm)≤33%; ITT, LOCF; vs. 33% with placebo, p=0.019
Procedure: Therefore, an analysis of sleep EEC CAP was performed that measured subtypes CAP A1, CAP A2, and CAP A3 and Total CAP (or CAP A1+A2+A3). Subtype CAP A1 is associated with sleep maintenance or least sleep instability, and subtypes CAP A2 and A3 are associated with moderate to prominent increases in sleep instability.
Because CAP A2 and A3 are most closely associated with sleep instability^26,27, the sum of CAPA2+CAPA3 rates (CAPA2+A3) was used as an indicator of disordered sleep. CAPA2+A3 was normalized (CAPA2+A3(Norm)) by dividing CAPA2+A3 by the total CAP rate (CAPtotal=CAPA1+CAPA2+CAPA3 rates=CAPA1+A2+A3) and expressed as a percentage. Therefore, CAPA2+A3(Norm)=100*CAPA2+A3/CAPA1+A2+A3 and this reflects the percentage of total CAP that is associated with sleep instability.
To determine whether patients experienced nights with a potential CAP response to treatment, it was necessary to determine an empirical threshold below which CAPA2+A3(Norm) values reflect a night of relatively stable sleep for this population. To determine a threshold for CAPA2+A3(Norm) that could be informative for a potential treatment response, the study CAP data were then evaluated by considering a range of cutoff values for CAPA2+A3(Norm) from ≤10% to ≤50%.
Data were coded such that improvements were positive.

[4] = system: fibromyalgia patients; settings: 10 to 40 mg over a 12-week period; cited from earlier work

For `CN(C)CCC=C1c2ccccc2C=Cc2ccccc21` [cyclobenzaprine, 3-(5H-dibenzo[a,d]cyclohepten-5-ylidene)-N,N-dimethyl-1-propanamine], the “level of energy during the day” value ([1]; with each dose) was “increased”, the quality of sleep ([1]; with each dose) was “improved” and the “level of fatigue on a scale of 1 to 10 after treatment” value ([1]; before treatment 9/10) was 3/10. The “level of energy and concentration” value [2] was “markedly better”, the sleep [2] was “improved substantially” and the “percentage of patients with increased nights of CAP response while on treatment” value [3] was 72%. The muscle tightness [4] was “reduction”, the pain score [4] was “significantly improved” and the quality of sleep [4] was “significantly improved”. The “total number of tender points” value [4] was “reduction”.
